Data: patent publication US11433082B2, “Composition containing sulfoalkyl ether cyclodextrin and latanoprost” (CyDex Pharmaceuticals, Inc., priority 2008, dated 2022)
Like-named read-outs stand apart in the source and are kept apart here.

Key:
Format in all cases: physicochemical
[1] = Phase solubility of latanoprost in the presence of SBE-β-CD (CAPTISOL); conditions: for pH: filtered supernatant
Protocol: SAE-CD increases the aqueous solubility of latanoprost. The phase solubility curve (FIG. 1) for latanoprost in the presence of SBE-β-CD (CAPTISOL®) was obtained according to Example 5. The intrinsic solubility of latanoprost in water, and in the absence of any solubilizing agent, is about 40 μg/mL. The invention provides a method of increasing the solubility of latanoprost in an aqueous composition, the method comprising including SAE-CD and latanoprost in the aqueous composition, wherein the molar ratio of SAE-CD to latanoprost, pH, concentration of SAE-CD, and concentration of latanoprost are as defined herein. In some embodiments, the SAE-CD increases the aqueous solubility of latanoprost by at least 10-fold.
Aqueous compositions containing latanoprost and different amounts of SBE-β-CD were prepared. Latanoprost (1 mg was measured into aluminum weighing boats (size 4×12×4 mm) by using a microbalance. The boats were put into the amber glass vials (Kimble vial, 1 dram) with Teflon-lined screw caps. Using a Rainin pipetman, 2.0 mL of SBE-β-CD test solution (0, 5, 10, or 20% w/v) were added to each vial. Each vial was capped, vortexed, placed on a rocker platform and gently mixed at room temperature. After 24 hours, the test vials were removed from the rocker platform, the solutions were centrifuged at 2500 rpm for 5 min, and the supernatants were filtered through 0.22 micron Millipore PVDF Millex-GV filters and the pH measured. The latanoprost in the aliquots was assayed by HPLC.

[2] = Photolytic (UV-B) stability of aqueous compositions of latanoprost; conditions: SAE-CD 1% or 5% w/v, pH 6.7, UV-B, compared to a solution excluding SAE-CD
Protocol: Latanoprost was measured in weighing boats (size 4×12×4 mm) by using a microbalance. The boats were put into 50 mL volumetric flask and 100 mM isotonic phosphate buffer (pH 6.7) was added to the flask. The flask was shaken, sonicated and vortexed over an hour. The solution was filtered through a PVDF filter with 20 mL of plastic syringe. SBE-β-CD 0, 1, 5% w/v and BAK 0.02% w/v were measured into each 10 mL volumetric flask and the filtered latanoprost solution were added to them. The flasks were shaken for a few minutes at R.T, and then these solutions and XALATAN® were put into quartz vessels. The Rayonet photochemical chamber reactor was used for the irradiation with RMR-3000A lamp. At various time points, the latanoprost in the aliquots was assayed by HPLC, and the solution pH's were measured before and after the light irradiation.

[3] = Hydrolytic stability of aqueous compositions of latanoprost at 60° C.; conditions: compared to a solution excluding SAE-CD
Protocol: Latanoprost was measured in weighting boats (size 4×12×4 mm) by using a microbalance. The boats were put into 50 mL volumetric flask and 10 mM or 100 mM isotonic phosphate buffer (pH 5.5, 6.7 and 8.0) was added to the flask. The flask was shaken, sonicated and vortexed over an hour. The solution was filtered through a PVDF filter with 20 mL of plastic syringe. SBE-β-CyD 0, 1, 2.5, 5% w/v or BAK 0.02% were measured into 6-dram amber vials, and the filtered latanoprost solution (12 mL) was added to each vials. The vials were shaken for a few minutes at R.T, and then there were kept at 60° C. At various time points, the latanoprost in the aliquots was assayed by HPLC and the solution pH's were measured.

- solubility at 24 h ([1]; aqueous 5% w/v SBE-β-CD (CAPTISOL) solution, pH 7.41, aqueous with cosolvent or surfactant or cyclodextrin, thermodynamic from solid, with 5% w/v CAPTISOL, room temperature, 24 hours, read-out: Latanoprost (solubility)): > 500 µg/mL
- solubility at 24 h ([1]; aqueous 10% w/v SBE-β-CD (CAPTISOL) solution, pH 6.93, aqueous with cosolvent or surfactant or cyclodextrin, thermodynamic from solid, with 10% w/v CAPTISOL, room temperature, 24 hours, read-out: Latanoprost (solubility)): > 500 µg/mL
- solubility at 24 h ([1]; aqueous test solution without SBE-β-CD (0% w/v), pH 8.57, water, thermodynamic from solid, without CAPTISOL, room temperature, 24 hours, read-out: Latanoprost (solubility)): 40 µg/mL
- pH ([1]; with 5% w/v CAPTISOL): 7.41
- pH ([1]; with 10% w/v CAPTISOL): 6.93
- pH ([1]; without CAPTISOL): 8.57
- solubility ([1]; water, thermodynamic from solid, in the absence of any solubilizing agent, read-out: intrinsic solubility of latanoprost in water): ~40 µg/mL
SMILES: CC(C)OC(=O)CCC/C=C\C[C@@H]1[C@@H](CC[C@@H](O)CCc2ccccc2)[C@H](O)C[C@@H]1O [Latanoprost, isopropyl (Z)-7-[(1R,2R,3R,5S)-3,5-dihydroxy-2-[(3R)3-hydroxy-5-phenylpentyl]-cyclopentyl]hept-5-enoate]
- solubility at 24 h ([1]; aqueous SBE-β-CD (SAE-CD, CAPTISOL) solution, aqueous with cosolvent or surfactant or cyclodextrin, thermodynamic from solid, solutions containing at least 5% w/v of SAE-CD, read-out: solubility of latanoprost): > 500 µg/mL
- photolytic degradation of latanoprost [2]: sufficient to suppress photolytic degradation
- hydrolytic degradation of latanoprost ([3]; SAE-CD 1% or 5% w/v, pH 5.5 and 6.7, 60° C.): sufficient to suppress hydrolytic degradation
- hydrolytic degradation of latanoprost ([3]; SAE-CD, pH 8, 60° C.): substantially reduce hydrolytic degradation
